Test results as given in PubChem BioAssay (NCI).
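All cell lines were grown in 96-well plates and treated with compound for 48 hours. Here, GI50 denotes the concentration required for 50% inhibition of growth. TGI denotes the concentration required for complete inhibition of growth.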

Columns and labels:
Assay in all cases: growth of human tumour cells (NCI), 48 h
SN12C renal = test system: SN12C renal
A498 renal = test system: A498 renal
HOP-92 NSCLC = test system: HOP-92 NSCLC
UACC-257 melanoma = test system: UACC-257 melanoma
DU-145 prostate = test system: DU-145 prostate
NCI-H460 lung = test system: NCI-H460 lung
RPMI-8226 leukemia = test system: RPMI-8226 leukemia
OVCAR-5 ovarian = test system: OVCAR-5 ovarian
SF-268 CNS = test system: SF-268 CNS
SNB-75 CNS = test system: SNB-75 CNS
A549 NSCLC = test system: A549 NSCLC
NCI-H23 lung = test system: NCI-H23 lung
SF-295 CNS = test system: SF-295 CNS
OVCAR-8 ovarian = test system: OVCAR-8 ovarian
OVCAR-3 ovarian = test system: OVCAR-3 ovarian
786-0 renal = test system: 786-0 renal
MALME-3M melanoma = test system: MALME-3M melanoma
T-47D breast = test system: T-47D breast
HL-60(TB) leukemia = test system: HL-60(TB) leukemia
PC-3 prostate = test system: PC-3 prostate
U251 CNS = test system: U251 CNS
HS 578T breast = test system: HS 578T breast
RXF 393 renal = test system: RXF 393 renal
SK-MEL-2 melanoma = test system: SK-MEL-2 melanoma
UO-31 renal = test system: UO-31 renal
SK-MEL-5 melanoma = test system: SK-MEL-5 melanoma
NCI/ADR-RES ovarian = test system: NCI/ADR-RES ovarian
TK-10 renal = test system: TK-10 renal
BT-549 breast = test system: BT-549 breast
MOLT-4 leukemia = test system: MOLT-4 leukemia
MCF7 breast = test system: MCF7 breast
OVCAR-4 ovarian = test system: OVCAR-4 ovarian
SK-MEL-28 melanoma = test system: SK-MEL-28 melanoma
ACHN renal = test system: ACHN renal
CAKI-1 renal = test system: CAKI-1 renal
SK-OV-3 ovarian = test system: SK-OV-3 ovarian
K-562 leukemia = test system: K-562 leukemia
LOX IMVI melanoma = test system: LOX IMVI melanoma
EKVX NSCLC = test system: EKVX NSCLC
COLO 205 colon = test system: COLO 205 colon
IGROV1 ovarian = test system: IGROV1 ovarian
SW-620 colon = test system: SW-620 colon
HCC-2998 colon = test system: HCC-2998 colon
HOP-62 NSCLC = test system: HOP-62 NSCLC
HCT-116 colon = test system: HCT-116 colon
CCRF-CEM leukemia = test system: CCRF-CEM leukemia
SNB-19 CNS = test system: SNB-19 CNS
KM12 colon = test system: KM12 colon
HCT-15 colon = test system: HCT-15 colon
MDA-MB-231 breast = test system: MDA-MB-231 breast
NCI-H226 lung = test system: NCI-H226 lung
UACC-62 melanoma = test system: UACC-62 melanoma
NCI-H522 lung = test system: NCI-H522 lung
SF-539 CNS = test system: SF-539 CNS
M14 melanoma = test system: M14 melanoma
HT29 colon = test system: HT29 colon
MDA-MB-435 = test system: MDA-MB-435
SR leukemia = test system: SR leukemia

`CCCCCCCCOc1ccc(/C=N/Nc2cc(C)nc3ccc(Cl)cc23)cc1` was tested, and the GI50 (SN12C renal) was 1780 nM, the TGI (SN12C renal) was 3350 nM and the GI50 (A498 renal) was 1980 nM. The TGI (A498 renal) was 3450 nM, the GI50 (HOP-92 NSCLC) was 1510 nM and the TGI (HOP-92 NSCLC) was 3020 nM. It also gave a GI50 (UACC-257 melanoma) of 1750 nM, a TGI (UACC-257 melanoma) of 4030 nM and a GI50 (DU-145 prostate) of 1760 nM. For the same compound, the TGI (DU-145 prostate) was 3320 nM, the GI50 (NCI-H460 lung) was 2010 nM and the TGI (NCI-H460 lung) was 3870 nM. The GI50 (RPMI-8226 leukemia) was 2010 nM, the TGI (RPMI-8226 leukemia) was 4630 nM and the GI50 (OVCAR-5 ovarian) was 1790 nM. It also gave a TGI (OVCAR-5 ovarian) of 3200 nM, a GI50 (SF-268 CNS) of 2210 nM and a TGI (SF-268 CNS) of 4180 nM. It also gave a GI50 (SNB-75 CNS) of 1860 nM, a TGI (SNB-75 CNS) of 3490 nM and a GI50 (A549 NSCLC) of 1700 nM. For the same compound, the TGI (A549 NSCLC) was 3520 nM, the GI50 (NCI-H23 lung) was 1900 nM and the TGI (NCI-H23 lung) was 3840 nM. For the same compound, the GI50 (SF-295 CNS) was 1830 nM, the TGI (SF-295 CNS) was 3450 nM and the GI50 (OVCAR-8 ovarian) was 2140 nM. It also gave a TGI (OVCAR-8 ovarian) of 4840 nM, a GI50 (OVCAR-3 ovarian) of 2170 nM and a TGI (OVCAR-3 ovarian) of 3820 nM. For the same compound, the GI50 (786-0 renal) was 1860 nM, the TGI (786-0 renal) was 3660 nM and the GI50 (MALME-3M melanoma) was 1850 nM. For the same compound, the TGI (MALME-3M melanoma) was 3360 nM, the GI50 (T-47D breast) was 1920 nM and the TGI (T-47D breast) was 4090 nM. The GI50 (HL-60(TB) leukemia) was 2000 nM, the TGI (HL-60(TB) leukemia) was 4460 nM and the GI50 (PC-3 prostate) was 1500 nM. The TGI (PC-3 prostate) was 3040 nM, the GI50 (U251 CNS) was 1820 nM and the TGI (U251 CNS) was 3390 nM. The GI50 (HS 578T breast) was 2230 nM, the TGI (HS 578T breast) was 4510 nM and the GI50 (RXF 393 renal) was 1550 nM. The TGI (RXF 393 renal) was 2940 nM, the GI50 (SK-MEL-2 melanoma) was 1970 nM and the TGI (SK-MEL-2 melanoma) was 3590 nM. It also gave a GI50 (UO-31 renal) of 1550 nM, a TGI (UO-31 renal) of 2930 nM and a GI50 (SK-MEL-5 melanoma) of 1730 nM. For the same compound, the TGI (SK-MEL-5 melanoma) was 3160 nM, the GI50 (NCI/ADR-RES ovarian) was 1970 nM and the TGI (NCI/ADR-RES ovarian) was 4070 nM. The GI50 (TK-10 renal) was 1910 nM, the TGI (TK-10 renal) was 3330 nM and the GI50 (BT-549 breast) was 14200 nM. For the same compound, the TGI (BT-549 breast) was 31400 nM, the GI50 (MOLT-4 leukemia) was 2050 nM and the TGI (MOLT-4 leukemia) was 4930 nM. The GI50 (MCF7 breast) was 1940 nM, the TGI (MCF7 breast) was 3910 nM and the GI50 (OVCAR-4 ovarian) was 1820 nM. The TGI (OVCAR-4 ovarian) was 3550 nM, the GI50 (SK-MEL-28 melanoma) was 1780 nM and the TGI (SK-MEL-28 melanoma) was 3200 nM. For the same compound, the GI50 (ACHN renal) was 1740 nM, the TGI (ACHN renal) was 3130 nM and the GI50 (CAKI-1 renal) was 1690 nM. It also gave a TGI (CAKI-1 renal) of 3110 nM, a GI50 (SK-OV-3 ovarian) of 1650 nM and a TGI (SK-OV-3 ovarian) of 3100 nM. The GI50 (K-562 leukemia) was 1660 nM, the TGI (K-562 leukemia) was 4240 nM and the GI50 (LOX IMVI melanoma) was 1660 nM. It also gave a TGI (LOX IMVI melanoma) of 3170 nM, a GI50 (EKVX NSCLC) of 1800 nM and a TGI (EKVX NSCLC) of 3330 nM. The GI50 (COLO 205 colon) was 1820 nM, the TGI (COLO 205 colon) was 3560 nM and the GI50 (IGROV1 ovarian) was 1840 nM. It also gave a TGI (IGROV1 ovarian) of 3670 nM, a GI50 (SW-620 colon) of 1890 nM and a TGI (SW-620 colon) of 3630 nM. For the same compound, the GI50 (HCC-2998 colon) was 2030 nM, the TGI (HCC-2998 colon) was 3590 nM and the GI50 (HOP-62 NSCLC) was 1480 nM. The TGI (HOP-62 NSCLC) was 3090 nM, the GI50 (HCT-116 colon) was 1830 nM and the TGI (HCT-116 colon) was 3810 nM. The GI50 (CCRF-CEM leukemia) was 2040 nM, the TGI (CCRF-CEM leukemia) was 5280 nM and the GI50 (SNB-19 CNS) was 2000 nM. It also gave a TGI (SNB-19 CNS) of 3830 nM, a GI50 (KM12 colon) of 1850 nM and a TGI (KM12 colon) of 3440 nM. For the same compound, the GI50 (HCT-15 colon) was 1850 nM, the TGI (HCT-15 colon) was 3380 nM and the GI50 (MDA-MB-231 breast) was 1810 nM. For the same compound, the TGI (MDA-MB-231 breast) was 3470 nM, the GI50 (NCI-H226 lung) was 1700 nM and the TGI (NCI-H226 lung) was 3620 nM. The GI50 (UACC-62 melanoma) was 1870 nM, the TGI (UACC-62 melanoma) was 3490 nM and the GI50 (NCI-H522 lung) was 1890 nM. The TGI (NCI-H522 lung) was 3860 nM, the GI50 (SF-539 CNS) was 1860 nM and the TGI (SF-539 CNS) was 3290 nM. It also gave a GI50 (M14 melanoma) of 1750 nM, a TGI (M14 melanoma) of 3510 nM and a GI50 (HT29 colon) of 1810 nM. The TGI (HT29 colon) was 3340 nM, the GI50 (MDA-MB-435) was 1730 nM and the TGI (MDA-MB-435) was 3160 nM. The GI50 (SR leukemia) was 1610 nM and the TGI (SR leukemia) was 7120 nM.
